13 molecules from ChEMBL document CHEMBL3272352, “Ergoline congeners as potential inhibitors of prolactin release. 2” (1976) can be followed below.

The test system of test [1] is Rattus norvegicus. Briefly: Inhibition of prolactin secretion in rat assessed as serum prolactin level at 1 mg, ip after 1 hr by radioimmunoassay relative to control.
Test [2] relates to Rattus norvegicus. Briefly: Inhibition of prolactin secretion in rat assessed as serum prolactin level at 10 ug, ip after 1 hr by radioimmunoassay relative to control. The format is functional.

For `CN(C)C1CCc2c(ccc(O)c2O)C1` (stereo not drawn), the “inhibition (INH)” value in test [1] is listed as 68%.
Take `CNC1CCc2c(OC)ccc(OC)c2C1` (stereo not drawn): the “inhibition (INH)” value in test [1] came out at 5%.
Regarding `COc1ccc(OC)c2c1CCC(N)C2` (stereo not drawn), in test [1], the “inhibition (INH)” value amounted to 3%.
Take `CCN(CC)C(=O)CCN(C)CCc1cc(OC)c(C)cc1OC`: the “inhibition (INH)” value in test [1] stood at 10%.
Turning to `CN(CCCC#N)C1CCc2ccccc2C1` (stereo not drawn), in test [1], the “inhibition (INH)” value worked out at 24%.
On the same count and under the same terms, to `COc1ccc(OC)c2c1CCC(N(C)C)C2.Cl` (stereo not drawn) belongs -3%; to `Br.COc1ccc(OC)c2c1CCC(N(C)CCCC#N)C2` (stereo not drawn), -4%; to `Br.NC1CCc2c(O)ccc(O)c2C1` (stereo not drawn), -9%.
Still for that read-out and setting: next, `Br.CNC1CCc2c(O)ccc(O)c2C1` (stereo not drawn): -19%.
Still for that read-out and setting: to `Br.CN(C)C1CCc2c(O)ccc(O)c2C1` (stereo not drawn) belongs 25%; to `Br.CN(CCCC#N)CCc1c[nH]c2ccccc12`, 12%.
Take `CN1CCc2cccc3c2[C@H]1Cc1ccc(O)c(O)c1-3` [APOMORPHINE]: in test [1], the “inhibition (INH)” value amounted to 29%.
For the molecule `CC(C)[C@H]1C(=O)N2CCC[C@H]2[C@]2(O)O[C@](NC(=O)[C@@H]3C=C4c5cccc6[nH]cc(c56)C[C@H]4N(C)C3)(C(C)C)C(=O)N12` [ERGOCORNINE], in test [2], the “inhibition (INH)” value came out at 60%.
